Reference: patent US12472231B2 (priority 2020, dated 2025)
Values after ≈ are worked out from the molar mass of the structure shown. Where a SMILES comes first, the peptide text is derived from it.

How the values were obtained:
[1] = tested on: virus-host endosomal acidification; assay type: cell-based
[2] = tested on: endosomal acidification in MDCK cells; assay type: cell-based, canine
A(H1N1)pdm09 virus [3] = assay type: cell-based
A(H1N1)pdm09 virus [4] = tested on: A(H1N1)pdm09 virus
rhinovirus [5] = tested on: rhinovirus
A(H7N9) virus [6] = tested on: A(H7N9) virus
MERS-CoV S protein = MERS-CoV S protein (Middle East respiratory syndrome-related coronavirus, UniProt K9N5Q8)
MERS-CoV S protein, sequence (K9N5Q8 18-1353 limits assumed): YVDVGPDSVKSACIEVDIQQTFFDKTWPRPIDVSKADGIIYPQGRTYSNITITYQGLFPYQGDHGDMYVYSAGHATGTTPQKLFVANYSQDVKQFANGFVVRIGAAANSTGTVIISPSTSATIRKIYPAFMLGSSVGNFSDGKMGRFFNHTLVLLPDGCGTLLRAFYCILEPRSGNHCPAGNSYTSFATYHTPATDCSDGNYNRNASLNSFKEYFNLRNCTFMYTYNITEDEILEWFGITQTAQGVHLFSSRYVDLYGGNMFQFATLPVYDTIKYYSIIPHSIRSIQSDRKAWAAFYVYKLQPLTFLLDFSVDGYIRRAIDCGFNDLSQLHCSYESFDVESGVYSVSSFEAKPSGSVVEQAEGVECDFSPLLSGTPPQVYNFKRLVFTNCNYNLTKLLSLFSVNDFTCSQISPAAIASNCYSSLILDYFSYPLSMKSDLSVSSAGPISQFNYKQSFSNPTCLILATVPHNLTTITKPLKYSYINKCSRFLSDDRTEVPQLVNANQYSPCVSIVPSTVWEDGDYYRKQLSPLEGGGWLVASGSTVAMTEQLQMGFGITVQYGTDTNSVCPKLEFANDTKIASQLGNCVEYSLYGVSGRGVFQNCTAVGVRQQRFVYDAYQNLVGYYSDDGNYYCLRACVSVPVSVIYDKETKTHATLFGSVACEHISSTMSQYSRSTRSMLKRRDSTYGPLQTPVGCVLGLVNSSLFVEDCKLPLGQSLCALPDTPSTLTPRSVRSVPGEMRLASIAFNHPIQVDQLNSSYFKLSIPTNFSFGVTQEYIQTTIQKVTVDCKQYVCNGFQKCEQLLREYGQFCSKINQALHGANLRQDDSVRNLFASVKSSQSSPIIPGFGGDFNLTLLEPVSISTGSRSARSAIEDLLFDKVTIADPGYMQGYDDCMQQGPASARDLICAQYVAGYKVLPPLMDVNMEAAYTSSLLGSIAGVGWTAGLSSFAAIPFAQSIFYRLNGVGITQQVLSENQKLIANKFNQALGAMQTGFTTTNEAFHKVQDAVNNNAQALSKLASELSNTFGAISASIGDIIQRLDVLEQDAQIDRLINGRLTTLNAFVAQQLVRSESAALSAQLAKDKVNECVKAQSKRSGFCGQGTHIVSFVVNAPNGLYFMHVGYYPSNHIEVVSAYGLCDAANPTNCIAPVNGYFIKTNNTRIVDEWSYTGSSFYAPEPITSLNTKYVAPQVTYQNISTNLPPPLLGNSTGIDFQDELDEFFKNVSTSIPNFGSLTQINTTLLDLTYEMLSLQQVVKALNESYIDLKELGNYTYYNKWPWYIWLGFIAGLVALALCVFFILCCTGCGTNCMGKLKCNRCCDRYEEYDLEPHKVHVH

MERS-CoV [7] = tested on: MERS-CoV
A(H7N9) virus [8] = tested on: A(H7N9) virus; remark: listed apart in the source
A(H1N1)pdm09 virus [9] = assay type: binding
MERS-CoV [10] = tested on: MERS-CoV; remark: listed apart in the source
SARS-CoV-2 [11] = tested on: SARS-CoV-2
SARS-CoV-2 [12] = tested on: SARS-CoV-2; remark: listed apart in the source
H1N1 HA1 protein = H1N1 HA1 protein (Influenza A virus, UniProt C3W5S1)
H1N1 HA1 protein, sequence (C3W5S1 18-344 limits assumed): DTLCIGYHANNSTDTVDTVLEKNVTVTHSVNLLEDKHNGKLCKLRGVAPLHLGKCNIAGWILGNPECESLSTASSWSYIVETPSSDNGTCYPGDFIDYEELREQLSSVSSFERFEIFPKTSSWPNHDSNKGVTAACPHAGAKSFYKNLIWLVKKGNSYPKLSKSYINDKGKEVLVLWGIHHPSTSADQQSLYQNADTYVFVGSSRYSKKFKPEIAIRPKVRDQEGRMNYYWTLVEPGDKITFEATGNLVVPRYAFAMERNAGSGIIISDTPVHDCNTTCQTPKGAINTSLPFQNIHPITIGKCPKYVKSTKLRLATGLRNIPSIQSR

SARS-CoV [13] = tested on: SARS-CoV
A(H7N9) virus [14] = assay type: binding
SARS-CoV [15] = assay type: binding
MERS-CoV [16] = assay type: binding
rhinovirus [17] = tested on: rhinovirus; remark: listed apart in the source
SARS-CoV-2 [18] = assay type: binding
rhinovirus [19] = assay type: binding; conditions: peptide coated on ELISA plate, bound virus by RT-qPCR
[20] = tested on: A(H1N1)pdm09 virus RNP release in MDCK cells

Compound: CO/C1=C\C(C)=C\[C@@H](C)[C@@H](O)[C@@H](C)C/C(C)=C/C=C/[C@H](OC)[C@@H]([C@@H](C)[C@@H](O)[C@H](C)[C@@]2(O)C[C@@H](O)[C@H](C)[C@@H](C(C)C)O2)OC1=O [bafilomycin A1, reference compound]
- inhibition of virus-host endosomal acidification [1]: could efficiently inhibit the virus-host endosomal acidification

Compound: CC[C@H](C)[C@H](NC(=O)[C@H](C)NC(=O)CNC(=O)[C@@H](N)CC(N)=O)C(=O)N[C@@H](CS)C(=O)N[C@@H](Cc1c[nH]c2ccccc12)C(=O)NCC(=O)N1CCC[C@H]1C(=O)N[C@@H](CS)C(=O)N1CCC[C@H]1C(=O)N[C@H](C(=O)N[C@@H](C)C(=O)N[C@@H](Cc1ccccc1)C(=O)N[C@@H](CCCNC(=N)N)C(=O)N[C@@H](CCC(N)=O)C(=O)N[C@H](C(=O)NCC(=O)N[C@@H](CC(N)=O)C(=O)N[C@@H](CS)C(=O)NCC(=O)N[C@@H](CCCNC(=N)N)C(=O)N[C@@H](Cc1ccccc1)C(=O)N[C@@H](CCCNC(=N)N)C(=O)N[C@H](C(=O)N[C@@H](CCCNC(=N)N)C(=O)N[C@@H](CS)C(=O)N[C@@H](CS)C(=O)N[C@@H](CCCNC(=N)N)C(=O)N[C@H](C(=O)N[C@@H](CCCNC(=N)N)C(=O)O)[C@@H](C)CC)C(C)C)[C@@H](C)CC)[C@@H](C)O [P9R] (H-NGAICWGPCPTAFRQIGNCGRFRVRCCRIR-OH)
- inhibition of endosomal acidification in live cells [2]: could more significantly inhibit endosomal acidification
- inhibition against A(H1N1)pdm09 virus compared with P9 (A(H1N1)pdm09 virus [3]): significantly stronger inhibition
- inhibition of viral replication (viral RNA copies in supernatants) (A(H1N1)pdm09 virus [4]): > 20 fold
- inhibition against rhinovirus compared with P9 (rhinovirus [5]): significantly stronger inhibition
- inhibition against A(H7N9) virus compared with P9 (A(H7N9) virus [6]): significantly stronger inhibition
- inhibition of virus-host endosomal acidification [1]: could efficiently inhibit the virus-host endosomal acidification
- binding to viral protein MERS-CoV S (MERS-CoV S protein): could also bind
- inhibition of viral replication (viral RNA copies in supernatants) (MERS-CoV [7]): 1000 fold
- IC50 against parainfluenza virus 3 (parainfluenza virus 3): > 25.0 µg/mL
- inhibition of viral replication (viral RNA copies in supernatants) (A(H7N9) virus [8]): > 20 fold
- binding to A(H1N1)pdm09 virus (A(H1N1)pdm09 virus [9]): could efficiently bind
- inhibition against MERS-CoV compared with P9 (MERS-CoV [10]): significantly stronger inhibition
- inhibition of viral replication (viral RNA copies in supernatants) (SARS-CoV-2 [11]): 1000 fold
- IC50 against SARS-CoV-2 (SARS-CoV-2 [12]): 0.9 µg/mL (≈ 0.264 µM)
- binding to viral protein H1N1 HA1 (H1N1 HA1 protein): could also bind
- inhibition of viral replication (viral RNA copies in supernatants) (SARS-CoV [13]): 1000 fold
- binding to A(H7N9) virus (A(H7N9) virus [14]): could also bind
- binding to SARS-CoV (SARS-CoV [15]): could also bind
- binding to MERS-CoV (MERS-CoV [16]): could also bind
- inhibition of viral replication (viral RNA copies in supernatants) (rhinovirus [17]): > 20 fold
- binding to SARS-CoV-2 (SARS-CoV-2 [18]): could efficiently bind
- binding to rhinovirus (rhinovirus [19]): could also bind
- inhibition of viral RNP release into nuclei [20]: could inhibit viral RNP release into nuclei

Compound: CC[C@H](C)[C@H](NC(=O)[C@H](C)NC(=O)CNC(=O)[C@@H](N)CC(N)=O)C(=O)N[C@@H](CS)C(=O)N[C@@H](Cc1c[nH]c2ccccc12)C(=O)NCC(=O)N1CCC[C@H]1C(=O)N[C@@H](CS)C(=O)N1CCC[C@H]1C(=O)N[C@H](C(=O)N[C@@H](C)C(=O)N[C@@H](Cc1ccccc1)C(=O)N[C@@H](CCCNC(=N)N)C(=O)N[C@@H](CCC(N)=O)C(=O)N[C@H](C(=O)NCC(=O)N[C@@H](CC(N)=O)C(=O)N[C@@H](CS)C(=O)NCC(=O)N[C@@H](Cc1c[nH]cn1)C(=O)N[C@@H](Cc1ccccc1)C(=O)N[C@@H](CCCCN)C(=O)N[C@H](C(=O)N[C@@H](CCCNC(=N)N)C(=O)N[C@@H](CS)C(=O)N[C@@H](CS)C(=O)N[C@@H](CCCCN)C(=O)N[C@H](C(=O)N[C@@H](CCCNC(=N)N)C(=O)O)[C@@H](C)CC)C(C)C)[C@@H](C)CC)[C@@H](C)O [P9, reference compound]
- IC50 against parainfluenza virus 3 (parainfluenza virus 3): > 25.0 µg/mL
- IC50 against SARS-CoV-2 (SARS-CoV-2 [12]): 2.4 µg/mL (≈ 0.719 µM)
